Measured values as given in patent publication US4242354A, “2-(2-Thenolythio)-propionylglycine: method for its preparation and pharmaceutical formulations containing said compound” (Mediolanum Farmaceutici S.r.L., priority 1978, dated 1980).
Like-named read-outs stand apart in the source and are kept apart here.

Legend:
elderly patients = format: in vivo, man
Protocol: The drug was assessed, with respect to its mucolytic action, on thirty elderly patients ([…], maximal 87, mean age 72). […] The improvement was assessed on the basis of the following parameters:
decrease of the daily quantity of sputum;
decrease of the viscosity of the sputum;
increase of the Tiffeneau's index;
improved value of the erythrocyte sedimentation rate.
A group of twenty patients, in the same mean age, was given for control purposes a known drug such as N-acetylcysteine.

in vivo [1] = conditions: rat, in vivo
Protocol: (§1) Hundred-and-forty (140) albino rats, Sprague-Dawley strain, bodyweight 120-135 grams, subdivided into groups each consisting of 5 animals, were used for the investigation. […] For each single compound the LD 50 was assessed according to Litchfield and Wilcoxon on the basis of the mortality rate encountered in the 7 days following the treatment.

rat = assay: in vivo; conditions: 10 animals per dose
Protocol: as §1

[2] = system: carbon tetrachloride poisoning; assay: Protective activity in the carbon tetrachloride poisoning; format: in vivo, male rats (Sprague-Dawley); conditions: CCl4 0.5 ml/mg sc, 7 days; drugs intramuscularly, (I) 200 and 300 mg/kg, (II) 300 mg/kg
Protocol: Fifty male rats (Sprague-Dawley, 180-200 grams bodyweight) were used for the investigation, subdivided into 5 groups: one group was given no treatment while the remaining 4 groups were poisoned for 7 consecutive days with CCl4 at the dosage of […] given subcutaneously.

bromobenzene poisoning = assay: Protective activity in the bromobenzene poisoning; format: in vivo, male rats (Sprague-Dawley); conditions: 300 mg/kg oral, vs investigational compound
Protocol: Fifty male rats (Sprague-Dawley, 180-200 g bodyweight) were used for the investigation, subdivided into 5 groups, each consisting of 10 animals, given orally the following compounds
(1) 5 percent gum arabic in tap water
(2) 5 percent gum arabic in tap water
(3) 2-(2-thenoylthio)-propionylglycine--200 mg/kg
(4) 2-(2-thenoylthio)-propionylglycine--300 mg/kg
Seven days later, the animals of the groups 2-3-4-[…] were given bromobenzene subcutaneously (150 mg/rat) while the remaining group (control) was given an equivalent volume of saline. Still seven days later, 5 of the animals of each group were given Nembutal (25 mg/kg/intraperitoneally), and the sleeping time was calculated.
The remaining 5 animals of each group were given bromophthalein at the dose of 50 mg intravenously; thirty minutes later, the animals were sacrificed and both the present bromophthalein and SGPT (serum glutamic pyruvic transaminase) were established in the blood.

mercuric chloride = assay: In vivo protective action against mercurial compounds; design: species or system male mice (Swiss strain); conditions: 300 mg/kg ip, mercuric chloride 20 mg/kg ip, mice, 24 hours
Protocol: Forty male mice (Swiss strain, 22 grams mean bodyweight) were used for the investigation, subdivided into 4 groups treated as follows:
(1) mercuric chloride, 20 mg/kg/intraperitoneally;
(4) mercuric chloride 20 mg/kg/intraperitoneally+2-thiopropionylglycine 300 mg/kg/intraperitoneally.
Deaths occurred were recorded hourly in the first 5 hours, and thereafter after 24 hours.

[3] = Stability test: physical properties and weight variations on heating; format: physicochemical
Protocol: (§2) The stability tests were carried out according to the Rogers' nonisothermic method suitably integrated by the evaluation of physical data, melting point, weight variation, and spectrophotometric assay. For each single compound, the tests were performed on a series of samples, with the weight of 100 milligrams, added for the wet tests with 1 ml of distilled water. […] The sample were kept in a thermostat at increasing temperatures, i.e. from 25° to 80° C. […] The temperature, programmed according to the Rogers' formula, resulted to be 40° C. at the end of the first hour, 50° C. at the end of the second hour, 57° C. at the end of the third hour, 63° C. at the end of the fourth hour, 69° C. at the end of the fifth hour, 73° C. at the end of the sixth hour, 77° C. at the end of the seventh hour and, as already specified, 80° C. at the end of the eighth hour.
Still in Table 5, the sample from 1 to 5 refer, for each of the two compounds, to the dry substance while the samples from 6 to 10 refer to the solution or to the aqueous suspension obtained as above specified.
(§3) In the case of the wet-treated samples, the final weight was only established on the samples No. 10 brought to dryness at 60° C. under vacuum after an 8-hour heating.

[4] = Stability test: melting point before and after heating; format: physicochemical
Protocol: as §2
The melting point was established in a capillary tube, under identical conditions, on the samples No. 5 after heating for 8 hours in the previously specified conditions, and on the samples No. 10 after heating and evaporation to dryness as previously specified.

physchem = assay: physchem
Protocol: as §2, §3

[5] = Rogers' nonisothermic method: energies of activation, specific velocities, validity periods; format: physicochemical
Protocol: as §2
The data shown in Table 7 were worked out according to the Rogers' method, drawing up the values of the energies of activation of the decomposition reactions under dry and wet conditions, the specific rate constants as well as the validity period.

[6] = Solubility and organoleptic properties; format: physicochemical; conditions: 100 milligrams with 1 ml of distilled water
mouse [7] = conditions: oral, 10 animals per dose
mouse [8] = conditions: intravenous, 10 animals per dose
[9] = background; cited from earlier work
in vivo [10] = conditions: mouse, po
in vivo [11] = conditions: mouse, iv
[12] = sample 1, dry, 1 hour 30 minutes
[13] = sample 3, dry, 5 hours 15 minutes
[14] = sample 5, dry, 8 hours, listed as 2-thiopropionylglycine
[15] = sample 10, wet, 8 hours, brought to dryness

With CC(=O)N[C@@H](CS)C(=O)O [N-acetylcysteine, reference compound] the “fit of cough on aerosol administration” value (elderly patients; in vivo) was “frequently happens” and the “decrease of the sputum, comparison of (I) and N-acetylcysteine” value (elderly patients; twenty control patients on N-acetylcysteine) was “overall comparable with those provided by the compound (I)”.

With CC(S)C(=O)NCC(=O)O (centres unmarked) [compound (II), 2-mercaptopropionylglycine, reference compound] the LD50 at 168 h (in vivo [1]; im) was 1630 mg/kg, the mortality at 168 h (in vivo [1]; im, 1500 mg/kg) was 20% and the mortality at 168 h (in vivo [1]; im, 1750 mg/kg) was 60%. The mortality at 168 h (in vivo [1]; im, 2000 mg/kg) was 100%, the mortality at 168 h (in vivo [1]; po, 1500 mg/kg) was 0% and the mortality at 168 h (in vivo [1]; po, 2000 mg/kg) was 0%. For the same compound, the mortality at 168 h (in vivo [1]; po, 2500 mg/kg) was 20%, the “No. Animals Dead” value (rat; intramuscular, 1500 mg/kg) was 2 and the “No. Animals Dead” value (rat; intramuscular, 1750 mg/kg) was 6. The “No. Animals Dead” value (rat; intramuscular, 2000 mg/kg) was 10, the “No. Animals Dead” value (rat; oral, 1500 mg/kg) was 0 and the “No. Animals Dead” value (rat; oral, 2000 mg/kg) was 0. For the same compound, the “No. Animals Dead” value (rat; oral, 2500 mg/kg (highest dose)) was 2, the “liver weight increase consequent to CCl4” value [2] was “can prevent the liver weight increase” and the liver protective effect (bromobenzene poisoning) was “lower than that induced by the investigational compound, and statistically not significant”. For the same compound, the deaths (mercuric chloride) was 10%, the Color [3, 12] was “white” and the “Weight Fin.” value [3, 12] was 98.3 mg. The “Weight Variations” value [3, 12] was -5.4%, the Color ([3]; sample 2, dry, 3 hours) was “white” and the “Weight Fin.” value ([3]; sample 2, dry, 3 hours, listed as 2-thiopropionylglycine) was 93.0 mg. The Color [3, 13] was “white”, the “Weight Fin.” value [3, 13] was 94.8 mg and the “Weight Variations” value [3, 13] was -5.67%. The Color ([3]; sample 4, dry, 8 hours) was “white”, the “Weight Fin.” value ([3]; sample 4, dry, 8 hours) was 95.7 mg and the “Weight Variations” value ([3]; sample 4, dry, 8 hours) was -5.53%. The “Weight Fin.” value [3, 14] was 198.9 mg, the “Weight Variations” value [3, 14] was -2.83% and the Color ([3]; sample 6, wet) was “colorless”. The Color ([3]; sample 7, wet) was “colorless”, the Color ([3]; sample 8, wet) was “colorless” and the Color ([3]; sample 9, wet) was “yellowish”. The “Weight Fin.” value [3, 15] was 193.8 mg, the “Weight Variations” value [3, 15] was -3.1% and the melting point variation ([4]; after heating) was “marked decrease of the melting point in the case of the wet sample”. For the same compound, the “Final m.p. wet conditions (Sample 10)” value ([4]; after heating 8 hours wet and evaporation to dryness) was 86-88 °C, the “Final m.p. dry conditions (Sample 5)” value ([4]; after heating for 8 hours, dry) was 92-94 °C and the Initial m.p. ([4]; before heating) was 93-95 °C. The Content (physchem) was 101.43%, the “E at 232 nm” value (physchem; as such) was 0.329 and the remaining at 1.5 h (physchem; dry) was 101%. The remaining at 3 h (physchem; dry) was 101%, the remaining at 5.25 h (physchem; dry) was 99.5% and the remaining at 8 h (physchem; dry) was 98.4%. The “E at 232 nm” value (physchem; sample 1, dry) was 0.325, the “E at 232 nm” value (physchem; sample 2, dry) was 0.324 and the “E at 232 nm” value (physchem; sample 3, dry) was 0.325. For the same compound, the “E at 232 nm” value (physchem; sample 4, dry) was 0.324, the “E at 232 nm” value (physchem; sample 6, wet) was 0.333 and the “E at 232 nm” value (physchem; sample 7, wet) was 0.325. The “E at 232 nm” value (physchem; sample 8, wet) was 0.320, the “E at 232 nm” value (physchem; sample 9, wet) was 0.300 and the “Energy of activation of the decomposition reaction” value ([5]; dry) was 65.52 kJ/mol. For the same compound, the “Energy of activation of the decomposition reaction” value ([5]; wet) was 48.28 kJ/mol, the appearance in water [6] was “clear solution” and the “No. Animals Dead” value (mouse [7]; 1500 mg/kg) was 0. The “No. Animals Dead” value (mouse [7]; 2000 mg/kg) was 1, the “No. Animals Dead” value (mouse [7]; 2500 mg/kg (highest dose)) was 2 and the “No. Animals Dead” value (mouse [8]; 500 mg/kg) was 0. The “No. Animals Dead” value (mouse [8]; 750 mg/kg) was 0, the “No. Animals Dead” value (mouse [8]; 1000 mg/kg) was 1 and the “stability (known)” value [9] was “low stability”. It also gave a mortality (in vivo [10]; 1500 mg/kg) of 0%, a mortality (in vivo [10]; 2000 mg/kg) of 10% and a mortality (in vivo [10]; 2500 mg/kg) of 20%. For the same compound, the mortality (in vivo [11]; 500 mg/kg) was 0%, the mortality (in vivo [11]; 750 mg/kg) was 0% and the mortality (in vivo [11]; 1000 mg/kg) was 10%.
